# Test results as given in ChEMBL document CHEMBL3593243, “Discovery of novel, potent, selective and cellular active ADC type PTP1B inhibitors via fragment-docking-oriented de novel design” (Bioorg Med Chem, 2015).
# Tests used:
# [1] = target: T1, Tyrosine-protein phosphatase non-receptor type 1 (Homo sapiens, UniProt P18031); experiment: Inhibition of human PTP1B catalytic domain expressed in Escherichia coli assessed as pNPP hydrolysis measured every 30 secs for 15 mins
# T1 sequence (P18031 whole entry): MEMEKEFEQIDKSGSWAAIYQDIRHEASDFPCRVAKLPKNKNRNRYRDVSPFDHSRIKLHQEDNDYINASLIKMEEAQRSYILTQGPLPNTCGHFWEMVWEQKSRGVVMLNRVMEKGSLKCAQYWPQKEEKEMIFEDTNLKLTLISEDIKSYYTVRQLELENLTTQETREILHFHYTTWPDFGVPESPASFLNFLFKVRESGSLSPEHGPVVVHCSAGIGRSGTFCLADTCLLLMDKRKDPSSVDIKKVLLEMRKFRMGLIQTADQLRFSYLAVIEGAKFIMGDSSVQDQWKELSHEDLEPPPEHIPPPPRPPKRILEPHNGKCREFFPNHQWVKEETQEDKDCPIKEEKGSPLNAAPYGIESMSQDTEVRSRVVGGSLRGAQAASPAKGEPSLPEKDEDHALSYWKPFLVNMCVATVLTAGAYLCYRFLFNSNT
# [2] = target: T1, Tyrosine-protein phosphatase non-receptor type 1; experiment: Inhibition of recombinant PTP1B (unknown origin) assessed as pNPP hydrolysis after 30 mins
# [3] = target: T2, Tyrosine-protein phosphatase non-receptor type 2 (Homo sapiens, UniProt P17706); experiment: Inhibition of TCPTP (unknown origin) assessed as pNPP hydrolysis after 30 mins
# T2 sequence (P17706 whole entry): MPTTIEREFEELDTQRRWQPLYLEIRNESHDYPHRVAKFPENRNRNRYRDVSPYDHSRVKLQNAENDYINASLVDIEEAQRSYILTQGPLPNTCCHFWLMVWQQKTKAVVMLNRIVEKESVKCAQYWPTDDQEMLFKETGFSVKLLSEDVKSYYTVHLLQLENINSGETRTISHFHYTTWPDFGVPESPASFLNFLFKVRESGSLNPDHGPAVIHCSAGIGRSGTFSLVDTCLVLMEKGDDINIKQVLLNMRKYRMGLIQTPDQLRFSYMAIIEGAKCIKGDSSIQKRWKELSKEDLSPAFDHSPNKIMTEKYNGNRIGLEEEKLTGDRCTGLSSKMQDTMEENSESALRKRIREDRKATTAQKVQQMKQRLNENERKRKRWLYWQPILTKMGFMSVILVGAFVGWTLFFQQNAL
# [4] = target: Tyrosine-protein phosphatase non-receptor type 6 (Homo sapiens, UniProt P29350); experiment: Inhibition of SHP1 (unknown origin) using pNPP as substrate
# Sequence of Tyrosine-protein phosphatase non-receptor type 6 (P29350 whole entry): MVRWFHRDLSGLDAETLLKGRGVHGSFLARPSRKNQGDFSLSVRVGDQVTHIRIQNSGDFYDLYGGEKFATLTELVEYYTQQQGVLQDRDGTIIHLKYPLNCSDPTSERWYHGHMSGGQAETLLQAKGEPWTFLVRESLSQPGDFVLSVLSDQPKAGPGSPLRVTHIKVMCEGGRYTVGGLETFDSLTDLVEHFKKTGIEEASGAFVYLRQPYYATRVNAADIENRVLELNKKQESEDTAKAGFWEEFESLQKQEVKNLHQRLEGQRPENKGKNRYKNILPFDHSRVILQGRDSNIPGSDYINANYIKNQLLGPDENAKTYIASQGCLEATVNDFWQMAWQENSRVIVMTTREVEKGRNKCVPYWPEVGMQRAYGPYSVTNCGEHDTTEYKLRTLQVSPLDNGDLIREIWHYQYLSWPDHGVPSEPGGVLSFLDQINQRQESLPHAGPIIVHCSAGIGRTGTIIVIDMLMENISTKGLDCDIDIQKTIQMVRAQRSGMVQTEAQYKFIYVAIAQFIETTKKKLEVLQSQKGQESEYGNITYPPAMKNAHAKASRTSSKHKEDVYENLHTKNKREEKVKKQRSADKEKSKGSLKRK
Compound,Ki [1] [µM],IC50 [2] [µM],IC50 [3] [µM],IC50 [4] [µM]
NC(=O)[C@H](Cc1ccc(C(F)(F)P(=O)(O)O)cc1)NC(=O)[C@H](Cc1ccccc1)NC(=O)Cc1ccc(C(F)(F)P(=O)(O)O)cc1,0.0017,,,
CCOc1cc(NS(C)(=O)=O)c(OCC)cc1CNC(=O)Nc1ccc(C)cc1,,0.309,5.19,
CCOc1cc(NS(C)(=O)=O)c(OCC)cc1CNC(=O)Nc1cccc(OC)c1,,2.73,,
CCOc1cc(NS(C)(=O)=O)c(OCC)cc1CNC(=O)Nc1ccc(OC)c(OC)c1,,0.204,,

# Further lines, results first:
Ki [1] [µM],IC50 [2] [µM],IC50 [3] [µM],IC50 [4] [µM],Compound
,0.537,,,CCOc1cc(NS(C)(=O)=O)c(OCC)cc1CNC(=O)Nc1ccccc1
,0.212,1.36,2.31,CCOc1cc(NS(C)(=O)=O)c(OCC)cc1CNC(=O)Nc1ccc(Br)cc1
,0.203,,9.08,CCOc1cc(NS(C)(=O)=O)c(OCC)cc1CNC(=O)Nc1ccc(OC)cc1
,0.756,,,CCOc1cc(NS(C)(=O)=O)c(OCC)cc1CNC(=O)NCc1ccccc1
